GI50 and TGI data for six compounds are collected here from PubChem BioAssay (NCI).

Each structure is given as a SMILES string.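 96-well plates; 48 h exposure; 5 concentrations. Endpoints by linear interpolation between flanking doses. Not reached: highest tested concentration assigned. Here, GI50 denotes the concentration required for 50% inhibition of growth. At the TGI there is no net growth.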

Holding throughout (experiment): NCI-60 cell line screen, 48 h
The test system of experiment [1] is A498 renal.
In experiment [2] the test system is HCC-2998 colon.
For experiment [3], the system named is UACC-62 melanoma.
Experiment [4] concerns NCI-H23 lung.
Experiment [5] relates to CAKI-1 renal.
Experiment [6] relates to TK-10 renal.
For experiment [7], the system named is K-562 leukemia.
In experiment [8] the test system is EKVX NSCLC.
Experiment [9] relates to SNB-19 CNS.
Experiment [10] deals with MDA-MB-231 breast.
The test system of experiment [11] is RXF 393 renal.
The subject of experiment [12] is HOP-92 NSCLC.
Experiment [13] concerns SK-MEL-28 melanoma.
The test system of experiment [14] is OVCAR-4 ovarian.
Experiment [15] concerns NCI-H460 lung.
The test system of experiment [16] is SF-295 CNS.
Experiment [17] has as its system HCT-15 colon.
For experiment [18], the system named is SR leukemia.
Experiment [19] deals with SNB-75 CNS.
Experiment [20] has as its system SF-268 CNS.
In experiment [21] the test system is IGROV1 ovarian.
Experiment [22] concerns CCRF-CEM leukemia.
Experiment [23] deals with A549 NSCLC.
Experiment [24] concerns MCF7 breast.
Experiment [25] has as its system MOLT-4 leukemia.
In experiment [26] the test system is SN12C renal.
Experiment [27] relates to MDA-MB-468 breast.
Experiment [28] concerns SF-539 CNS.
For experiment [29], the system named is OVCAR-5 ovarian.
For experiment [30], the system named is NCI-H226 lung.
Experiment [31] concerns HL-60(TB) leukemia.
The subject of experiment [32] is PC-3 prostate.
For experiment [33], the system named is SK-OV-3 ovarian.
Experiment [34] concerns HS 578T breast.
Experiment [35] concerns HOP-62 NSCLC.
Experiment [36] deals with KM12 colon.
The subject of experiment [37] is UO-31 renal.
For experiment [38], the system named is LOX IMVI melanoma.
In experiment [39] the test system is ACHN renal.
In experiment [40] the test system is SK-MEL-5 melanoma.

With `CSc1ccc(C(=O)Nc2ccc3nnn(/C(C#N)=C/c4ccccn4)c3c2)cc1`, the GI50 in experiment [1] was 13.2 µM; in [2], 1.79 µM; in experiment [3] it was 1.68 µM; in experiment [4], 1.78 µM; in experiment [5] it was 1.33 µM; in experiment [6] it was 1.66 µM. For the same compound, the GI50 in experiment [7] was 2.53 µM; in experiment [8], 2.15 µM; in experiment [9] it was 3.14 µM; in [10], 1.76 µM; in experiment [11] it was 1.5 µM; in [12], 1.79 µM. The GI50 in experiment [13] was 1.68 µM; in experiment [14] it was 4.53 µM; in [15] it was 2.2 µM; in [16], 6.89 µM; in experiment [17] it was 1.66 µM; in [18], 2.75 µM. Moreover, the GI50 is 3.97 µM in [19]; 4.16 µM in [20]; 1.91 µM in [21]; 2.1 µM in [22]; 3.46 µM in [23]; 1.28 µM in experiment [24]. For the same compound, the GI50 in experiment [25] is 3.57 µM; in experiment [26], 2.13 µM; in experiment [27], 1.31 µM; in [28], 1.66 µM; in [29] it was 1.75 µM; in experiment [30] it was 3.76 µM. The GI50 in experiment [31] is 2.67 µM; in experiment [32] it was 2.74 µM; in experiment [33], 24.5 µM; in experiment [34], 2.51 µM; in experiment [35], 3.11 µM; in experiment [36] it was 1.94 µM. Moreover, the GI50 in [37] was 1.37 µM; in experiment [38] it was 1.52 µM; in [39], 1.74 µM; in experiment [40], 2.01 µM. Also, the TGI in experiment [1] came to 53.3 µM; in experiment [2], 3.26 µM; in experiment [3] it was 3.35 µM; in [4], 3.5 µM; in experiment [5], 2.65 µM; in experiment [6], 3.11 µM. Besides, the TGI in experiment [7] is above 100 µM; in experiment [8], 4.89 µM; in experiment [9] it was 12.1 µM; in experiment [10], 3.23 µM; in experiment [11] it was 2.84 µM; in experiment [12], 4.62 µM. For the same compound, the TGI was 3.11 µM in experiment [13]; above 100 µM in experiment [14]; 4.35 µM in experiment [15]; 21.4 µM in [16]; 3.53 µM in experiment [17]; above 100 µM in experiment [18]. Also, the TGI is 25.4 µM in experiment [19]; 45.3 µM in experiment [20]; 3.8 µM in experiment [21]; above 100 µM in experiment [22]; above 100 µM in experiment [23]; 2.72 µM in experiment [24]. In addition, the TGI in experiment [25] was above 100 µM; in experiment [26], 4.97 µM; in experiment [27], 2.91 µM; in [28] it was 3.05 µM; in experiment [29] it was 3.19 µM; in experiment [30], 26.9 µM. Also, the TGI is above 100 µM in [31]; 7.14 µM in experiment [32]; above 100 µM in [33]; 7.12 µM in experiment [34]; 12.6 µM in experiment [35]; 4.65 µM in experiment [36]. For the same compound, the TGI amounted to 2.65 µM in experiment [37], 2.92 µM in experiment [38], 3.11 µM in experiment [39] and 4.79 µM in [40].

Take `CC(=O)[O][Hg][c]1c(C)c(C)cc(C)c1C`: in experiment [27], the GI50 was 0.793 µM and the TGI was 2.15 µM.

For the compound `O=C1Cc2cc(C(=O)NC3C[C@H]4CC[C@@H](C3)N4S(=O)(=O)CC3CCN(CCCC(F)(F)F)CC3)c(Cl)cc2N1` (stereo not given in full), in [27], the GI50 was 27 µM and the TGI was above 100 µM.

For the compound `CC[C@H](C)[C@H](NC(=O)CN(C)C)C(=O)N(C)[C@H](C[C@@H](OC(C)=O)c1nc(C(=O)NC23CC(C(=O)OC)(C2)C3)cs1)C(C)C`, in experiment [27], the GI50 is 0.13 µM and the TGI is above 25 µM.

On to `COC(=O)[C@H]1CCCN1C(=O)[C@H]1CCCN1C(=O)[C@H](Cc1c[nH]c2ccccc12)NC(=S)Nc1cc(C(F)(F)F)cc(C(F)(F)F)c1`, for which, in experiment [27], the GI50 is 3.68 µM and the TGI turned out to be 68.8 µM.

Regarding `COc1ccc2c(OCc3nnc4ccc(-c5ccccc5)nn34)ccnc2c1`, in experiment [27], the GI50 was 3.22 µM and the TGI was above 100 µM.
